{"source": "patent US20050096360A1", "about": "“Inhibitors of semicarbazide-sensitive amine oxidase (SSAO) and VAP-1 mediated adhesion useful for treatment of diseases” (priority 2003, published 2005)", "key": {"[1]": {"tested_on": "adhesion of human PBMCs to rat HEC transfected with full-length human SSAO/VAP-1", "test": "In vitro adhesion of PBMCs to SSAO/VAP-1-transfected high endothelial cells", "format": "cell-based", "details": "inhibitors at IC100 concentrations, antibody 10 μg/ml; 3 hr at 37° C.", "protocol": "The studies in this Example were carried out in order to determine whether SSAO/VAP-1 transfected into endothelial cells retained the adhesion function and whether it played any role in the adhesion of freshly isolated human PBMCs to these cells. Moreover, the studies were also designed to determine whether blocking of SSAO/VAP-1 would have an impact on the level of adhesion between these two cell types. Adhesion assays were performed using cells labeled with the fluorescent dye Calcein-AM (Molecular Probes, OR, USA) as per the manufacturer's instructions. Briefly, rat lymph node high endothelial cells (HEC; isolation and culture was described in Ager, A. (1987) J. Cell Sci. 87: 133) were plated overnight in 96-well plates (2,000 cells/well). PBMCs (peripheral blood mononuclear cells) (1×10^7) were labeled with 1 ml of 10 μM Calcein-AM for 1 hr at 37° C., washed three times with RPMI, and added to the 96 well plates containing monolayers of HEC cells mock-transfected or transfected with full-length human SSAO/VAP-1 (60,000 PBMCs were plated per well containing 2,000 HEC cells). Adhesion was carried out for 3 hr at 37° C. Non-adherent cells were removed by washing three times with RPMI and fluorescence was measured in a fluorescence plate reader at an excitation wavelength of 485 nm and emission wavelength of 530 nm. Several controls were included, such as HEC cells and PBMCs (labeled and unlabeled) alone.\n(§1) These studies were repeated using the adhesion assay as described above to evaluate the inhibitors of the invention. Adhesion blockers used included an anti-human VAP-1 monoclonal antibody (Serotec, Oxford, UK), neuramidase (a sialidase, because SSAO/VAP-1 is a sialoglycoprotein; Sigma), and several function-blocking antibodies to rat adhesion molecules (CD31-PECAM, CD54-ICAM-1, […]-P Selectin). […] Antibodies (10 μg/ml) and neuramidase (5 mU) were incubated with the HECs for 30 min at 37° C.; excess antibody was washed away prior to the addition of the labeled PBMCs. Small-molecule inhibitors were pre-incubated the same way at IC100 concentrations, but the amounts present in the supernatant were not washed away to preserve the IC100 concentration during the adhesion step."}, "[2]": {"test": "Acute toxicity studies in mice", "format": "in vivo", "details": "female, C57B1/6, mouse, in vivo, Day 7 values", "protocol": "(§2) Intraperitoneal (i.p.) and intravenous (i.v.) LD50 values for the compounds of Examples 8 and 10, as well as mofegiline, the allylamine compound described in Example 18, were determined in mice. Six-week old C57B1/6 female mice were divided in groups of five and administered a single i.p or i.v. injection of compound dissolved in PBS (10-100 mg/kg in 100 ul i.v.; 30-500 mg/kg in 200 ul i.p.). Control groups were administered the same volume of PBS i.p. or i.v. Appearance and overt behavior were noted daily, and body weight was measured before compound administration (Day 1) and on Days, 3, 5 and 7. After seven days, animals were euthanized and their liver, spleen and kidneys weighted.\n(§3) Acute toxicity effects for mofegiline included tremors (40 mg/kg i.v.; 100 mg/kg i.p.) and clonic convulsions and labored breathing (100 mg/kg i.v.; 200 mg/kg i.p.). […] All deaths occurred within 24 hours after drug administration. […] Thus, there is no indication of the cause of death for any of the compounds tested."}, "C57B1/6 female mice": {"tested_on": "C57B1/6 female mice", "test": "Acute toxicity studies in mice", "format": "in vivo", "protocol": "as §2, §3"}, "EAE in C57BL/6 mice": {"tested_on": "EAE in C57BL/6 mice", "test": "Experimental autoimmune encephalomyelitis (EAE), MOG 35-55", "format": "in vivo", "protocol": "SSAO/VAP-1 is expressed on the endothelium of inflamed tissues/organs including brain and spinal cord. Its ability to support lymphocyte transendothelial migration may be an important systemic function of SSAO/VAP-1 in inflammatory diseases such as multiple sclerosis and Alzheimer's disease. An analysis of the use of SSAO inhibitors to treat inflammatory disease of the central nervous system (CNS) was performed through the use of an experimental autoimmune encephalomyelitis model (EAE) in C57BL/6 mice. EAE in rodents is a well-characterized and reproducible animal model of multiple sclerosis in human (Benson J. M. et al. (2000) J. Clin. Invest. 106:1031). Multiple sclerosis is a chronic immune-mediated disease of the CNS characterized by pachy perivenular inflammatory infiltrates in areas of demyelination and axonal loss. As an animal model, EAE can be induced in mice by immunization with encephalitogenic myelin antigens in the presence of adjuvant. The pathogenesis of EAE comprises presentation of myelin antigens to T cells, migration of activated T cells to the CNS, and development of inflammation and/or demyelination upon recognition of the same antigens.\nThirty female C57BL/6 mice were immunized subcutaneously (s.c). with myelin oligodendrocyte glycoprotein 35-55 (MOG peptide 35-55) in Complete Freund Adjuvant (CFA) on day 0, followed by i.p. injections of pertussis toxin (one pertussis toxin injection on day 0, a second pertussis toxin injection on day 2). Groups of 10 mice received either the allylamine compound mofegiline (AA, 10 mg/kg/dose, twice daily for 18 consecutive days), methotrexate (2.5 mg/kg/day, every other day (Mon., Weds., Fri.) till day 18) or vehicle control (twice/day for 18 consecutive days) all-starting from one day after the immunization and all administered i.p. Then animals were monitored for body weight, signs of paralysis and death according to a 0-5 scale of scoring system as follows: 1=limp tail or waddling gait with tail tonicity; 2=waddling gait with limp tail (ataxia); 2.5=ataxia with partial limb paralysis; 3=full paralysis of one limb; 3.5=full paralysis of one limb with partial paralysis of second limb; 4=full paralysis of two limbs; 4.5=moribund; 5=death. Results are shown in FIG. 2A, FIG. 2B, and FIG. 2C. […] (p=0.04 by repeated measure analysis to assess the treatment effect. Proper polynomial transformation, with the spacing corresponding to the collection days, was applied to test the time effect). Statistically significant differences in diseases severity between the AA and vehicle-treated groups, continued even after stopping compound administration and were observed until the end of the study (d25) ."}, "SSAO": {"tested_on": "SSAO", "test": "IC100 concentrations of SSAO inhibitors used in the adhesion assay", "format": "biochemical", "details": "FIG. 7 legend", "excerpt": "FIG. 7 depicts the effect of blockage of SSAO/VAP-1 on binding between peripheral blood mononuclear cells (PBMCs) and high endothelial cells (HEC). FIG. 7A is a control experiment showing the effect of various compounds used for treatment on the adhesion of PBMCs to mock-transfected high endothelial cells; a non-treated control is included for comparison (MNT). FIG. 7B is a control experiment showing the effect of various compounds used for treatment on the adhesion of PBMCs to high endothelial cells transfected with VAP-1; a non-treated control is included for comparison (VNT).\nas §1"}}, "note": "Like-named read-outs stand apart in the source and are kept apart here.", "data": [{"compound": "C#CCN(C)CCCOc1ccc(Cl)cc1Cl", "note": "[Clorgyline, clorgyline]", "values": [{"measurement": "number of PBMCs adherent to SSAO/VAP-1 transfected HECs", "setting": "[1]", "result": "no effect"}]}, {"compound": "NC/C(=C/F)CCc1ccc(F)cc1", "note": "[Mofegiline, mofegiline, reference compound]", "values": [{"measurement": "LD50 at 7 days", "setting": "[2]; ip, single i.p. injection, read-out: LD50 intraperitoneal", "result": 200, "unit": "mg/kg"}, {"measurement": "LD50 at 7 days", "setting": "[2]; iv, single i.v. injection, read-out: LD50 intravenous", "result": 70, "unit": "mg/kg"}, {"measurement": "dose causing tremors", "setting": "C57B1/6 female mice; i.p.", "result": 100, "unit": "mg/kg"}, {"measurement": "dose causing convulsions and labored breathing", "setting": "C57B1/6 female mice; i.p. (see Table 2)", "result": 200, "unit": "mg/kg"}, {"measurement": "dose causing clonic convulsions and labored breathing", "setting": "C57B1/6 female mice; i.v.", "result": 100, "unit": "mg/kg"}, {"measurement": "dose causing tremors", "setting": "C57B1/6 female mice; i.v.", "result": 40, "unit": "mg/kg"}, {"measurement": "disease severity (clinical score)", "setting": "EAE in C57BL/6 mice; 10 mg/kg/dose i.p. twice daily for 18 days, p=0.04 vs vehicle", "result": "statistically significant reduction"}, {"measurement": "disease incidence (mice affected)", "setting": "EAE in C57BL/6 mice; 10 mg/kg/dose i.p. twice daily, dosing period up to day 18, vehicle 80%", "result": 50, "unit": "%"}, {"measurement": "body weight loss", "setting": "EAE in C57BL/6 mice; 10 mg/kg/dose i.p. twice daily, dosing period, p=0.04", "result": "prevented"}]}, {"compound": "C#CCN(C)Cc1ccccc1", "note": "[Pargyline, pargyline]", "values": [{"measurement": "number of PBMCs adherent to SSAO/VAP-1 transfected HECs", "setting": "[1]", "result": "no effect"}]}, {"compound": "NNC(N)=O", "note": "[Semicarbazide, semicarbazide]", "values": [{"measurement": "IC100 (SSAO)", "setting": "SSAO", "result": 500, "unit": "µM"}]}]}
